Laboratory results as given in PubChem BioAssay AID1985 (Southern Research Specialized Biocontainment Screening …, 2009).

Each molecule was assayed on S. Typhi PhoP-promoter GFP reporter, fluorescence, 4 h (assay: modified counter assay using GFP fluorescence, PhoP regulon inhibitor project, dose response (AID 1985)).

With Nc1ncn([C@@H]2O[C@H](CO)[C@@H](O)[C@H]2O)c(=O)n1 as the molecule, how does the IC50 read?
Its IC50 is 11.2 µM.

For Nc1nonc1-n1nnc(C(=O)N/N=C/c2cc(Br)ccc2O)c1CSC1=NCCS1, which IC50 is on record?
The IC50 was 26 µM.

Cc1ccc(S(=O)(=O)NNc2ccccc2)c(C)c1 was tested. Which IC50 did it give?
Its IC50 is 117 µM.

How did the IC50 turn out when CCCCCCOC(=O)C[N+](C)(C)CCOC1CC2CCC1(C)C2(C)C (centres undefined) was run?
Its IC50 is 48 µM.

How did the IC50 turn out when CCCCCC(=O)NC(=S)NNC(=O)CC was run?
The IC50 was 84.2 µM.

Oc1ccccc1C(Nc1nccs1)c1ccc2cccnc2c1O (centres undefined) was tested. Which IC50 did it give?
The IC50 was 34.8 µM.

How did the IC50 turn out when O=C1OCC(CO)(CO)N=C1NNc1ccc(Cl)c(Cl)c1 was run?
Its IC50 is 26.1 µM.

With CCOc1ccc(Nc2nc(NCC3CCCO3)c3ccccc3n2)cc1 (centres undefined) as the molecule, how does the IC50 read?
The IC50 was 14.2 µM.

For COc1c(N2CCN(C(=S)Nc3ccccc3F)C(C)C2)c(F)cc2c(=O)c(C(=O)O)cn(C3CC3)c12 (centres undefined), which IC50 is on record?
Its IC50 is 0.441 µM.

For O=C(CCNC(=O)c1ccco1)Nc1ccc(SC(F)F)cc1, which IC50 is on record?
Its IC50 is 74.7 µM.

With O=C(Nc1nnc(-c2ccco2)o1)c1cccc(Cl)c1 as the molecule, how does the IC50 read?
Its IC50 is 40 µM.

How did the IC50 turn out when C[C@H]1c2cccc(O)c2C(O)=C2C(=O)C3(O)C(O)=C(C(N)=O)C(=O)[C@@H](N(C)C)[C@@H]3[C@@H](O)[C@@H]21 (some centres undefined) was run?
Its IC50 is 1.9 µM.

How did the IC50 turn out when O=C(Nc1ccc(Cl)cc1)Nc1ccc2c(c1)N1CCN=C1S2 was run?
The IC50 was 57.1 µM.

Which IC50 does the source give for Cc1ccc(NC(=O)C(=O)NNC(=O)c2cccs2)cc1 here?
The IC50 was 13.2 µM.

With Cc1ccc(C(C[N+](=O)[O-])Sc2ccc(N)cc2)cc1 (centres undefined) as the molecule, how does the IC50 read?
The IC50 was 29.5 µM.

With O=C(N/N=C/c1cc([N+](=O)[O-])ccc1O)C(O)(c1ccccc1)c1ccccc1 as the molecule, how does the IC50 read?
Its IC50 is 60.4 µM.

Which IC50 does the source give for O=Nc1ccc(O)c2ncccc12 here?
Its IC50 is 24.6 µM.

With O=C(N/N=C/c1c[nH]c2ccccc12)c1cccc(O)c1 as the molecule, how does the IC50 read?
The IC50 was 130 µM.

Which IC50 does the source give for O=C(N/N=C/c1cc(Br)ccc1O)c1ccncc1 here?
The IC50 was 29.9 µM.

How did the IC50 turn out when O=C1C(Cl)=C(NCc2cccnc2)C(=O)c2ccccc21 was run?
The IC50 was 41.6 µM.

Which IC50 does the source give for O=C(NNC(=S)NC(=O)c1ccco1)c1ccc(F)cc1 here?
Its IC50 is 96.8 µM.

With CCn1cc(C(=O)O)c(=O)c2cc(F)c(N3CCN(S(=O)(=O)c4ccc(NC(C)=O)cc4)CC3)cc21 as the molecule, how does the IC50 read?
Its IC50 is 86.6 µM.

For CCCCC(CC)CN=C(N)NC(N)=NCCCCCCN=C(N)NC(N)=NCC(CC)CCCC (centres undefined), which IC50 is on record?
The IC50 was 2.61 µM.

For COc1ccc(NC2=NC3(CCCCC3)N=C(N)N2)cc1, which IC50 is on record?
Its IC50 is 141 µM.

Which IC50 does the source give for Clc1ccc(CN2C3=NCCN3c3ccccc32)cc1 here?
The IC50 was 89.4 µM.

How did the IC50 turn out when N=c1n(CCN2CCCCC2)c2ccccc2n1CC(O)c1ccc(Cl)c(Cl)c1 (centres undefined) was run?
The IC50 was 64.1 µM.

Which IC50 does the source give for O=C(Cn1cc[n+](CC(=O)c2ccc(Cl)cc2Cl)c1)c1ccc(Cl)cc1Cl here?
Its IC50 is 37.2 µM.

For CC(=O)NC(c1cccc([N+](=O)[O-])c1)c1ccc2cccnc2c1O (centres undefined), which IC50 is on record?
Its IC50 is 98.9 µM.

O=C1NCCN1c1ncc([N+](=O)[O-])s1 was tested. Which IC50 did it give?
The IC50 was 15.9 µM.

For OC1CNCc2cc3c(cc21)OCCO3 (centres undefined), which IC50 is on record?
The IC50 was 80.8 µM.

O=C(N/N=C/c1ccc([N+](=O)[O-])o1)c1ccc(O)cc1 was tested. Which IC50 did it give?
The IC50 was 18.3 µM.

How did the IC50 turn out when CN(Cc1ccccc1O)CC1CCCN(CCc2ccc(Cl)cc2)C1 (centres undefined) was run?
Its IC50 is 51.6 µM.

For O=C(Nc1cccc([N+](=O)[O-])c1)Nc1cccs1, which IC50 is on record?
The IC50 was 45.6 µM.

O=C(Cc1ccccc1)N/N=C/c1cc(Br)cc(Cl)c1O was tested. Which IC50 did it give?
Its IC50 is 44.9 µM.

CC[C@@H](C)[C@H](CNC)NC[C@@H](Cc1cccc2ccccc12)NCCc1cccc(C(F)(F)F)c1 was tested. Which IC50 did it give?
Its IC50 is 21.8 µM.

Which IC50 does the source give for COc1ccc2nc(NC(=O)C3CC(=O)N(c4ccccc4)C3)sc2c1 (centres undefined) here?
The IC50 was 107 µM.

How did the IC50 turn out when C#CCOCCOCCOCCNc1nc(N2CCN(C(=O)CCCCCCCCCCNC(=O)[C@H]([C@@H](C)CC)n3cc(CCCCN=C(N)N)nn3)CC2)nc(N2CCN(C(=O)CCCCCCCCCCNC(=O)[C@H](CCCCN)n3cc(C)nn3)CC2)n1 was run?
Its IC50 is 69.3 µM.

O=C1C(=O)c2ccccc2-c2ccccc21 was tested. Which IC50 did it give?
Its IC50 is 19 µM.

Which IC50 does the source give for Nc1cc(Cl)c2nonc2c1[N+](=O)[O-] here?
The IC50 was 19.6 µM.

With CC(NCc1ccccc1O)C12CC3CC(CC(C3)C1)C2 (centres undefined) as the molecule, how does the IC50 read?
The IC50 was 81.4 µM.

With CN(C)CC/C=C1\c2ccc(F)cc2Sc2cc(F)c(Cl)cc21 as the molecule, how does the IC50 read?
Its IC50 is 36.7 µM.

Which IC50 does the source give for O=C(CCC(=O)Nc1ccc(Cl)cc1Cl)N/N=C/c1ccc([N+](=O)[O-])o1 here?
Its IC50 is 33.9 µM.

CCOC(=O)N/N=C\c1ccc([N+](=O)[O-])o1 was tested. Which IC50 did it give?
Its IC50 is 23.7 µM.

For Cc1ccc(-c2c[n+](CC(=O)Nc3nc(-c4ccccc4)cs3)c3n2CCC3)cc1, which IC50 is on record?
Its IC50 is 90.4 µM.

With O=C1NCCCC1C(=O)N/N=C/c1cc([N+](=O)[O-])ccc1O (centres undefined) as the molecule, how does the IC50 read?
The IC50 was 114 µM.

How did the IC50 turn out when Cn1ncnc2c(=O)n(C)c(=O)nc1-2 was run?
The IC50 was 0.741 µM.

With O=c1ccnc(Sc2ncccc2[N+](=O)[O-])[nH]1 as the molecule, how does the IC50 read?
The IC50 was 102 µM.

With CN1CCC(OC(=O)c2cccc(Br)c2)CC1 as the molecule, how does the IC50 read?
The IC50 was 120 µM.

How did the IC50 turn out when Oc1ccc(COCc2ccccc2)c2cccnc12 was run?
The IC50 was 47.8 µM.

How did the IC50 turn out when OC(CNCC1CCCO1)Cn1c2ccc(Cl)cc2c2cc(Cl)ccc21 (centres undefined) was run?
The IC50 was 38.8 µM.

Which IC50 does the source give for CCOC(=O)N1CCN(CCC(=O)c2ccc(Cl)cc2)CC1 here?
Its IC50 is 108 µM.

How did the IC50 turn out when CC(C)(C)/C(O)=C/c1nc2cc(Cl)ccc2oc1=O was run?
The IC50 was 11.2 µM.

For COC(=O)C1=C(C)N(Cc2ccccc2)C(=NCc2cccc(C(F)(F)F)c2)N[C@H]1c1cccc(F)c1, which IC50 is on record?
Its IC50 is 86.1 µM.

How did the IC50 turn out when O=S(=O)(Nc1ncccn1)c1ccc(NC(=S)Nc2cccc(Cl)c2)cc1 was run?
Its IC50 is 95.3 µM.

Which IC50 does the source give for NC(=O)SCC(=O)Nc1ccc(Cl)cc1 here?
Its IC50 is 45.1 µM.

Which IC50 does the source give for CCCCCNC(=O)c1cn(CC)c2cc(N3CCN(C)CC3)c(F)cc2c1=O here?
Its IC50 is 80.1 µM.

For COc1ccccc1C(C[N+](=O)[O-])c1c(N)n(C)c(=O)n(C)c1=O (centres undefined), which IC50 is on record?
The IC50 was 79.1 µM.

How did the IC50 turn out when COc1cc(C(=O)N/N=C/c2ccc(OC(=O)c3cccc(C)c3)c(OC)c2)ccc1O was run?
The IC50 was 20.9 µM.

For O=C(NC(C(=O)c1ccccc1)n1c(=O)cc[nH]c1=S)c1ccccc1 (centres undefined), which IC50 is on record?
Its IC50 is 120 µM.
